From article PMC3433420 (PLoS ONE, 2012)
Residues, ends and D or L forms follow the SMILES beside them.

Assays:
PIK3R3-C SH2 domain = biological target: T1, PIK3R3-C SH2 domain (Homo sapiens, UniProt Q92569); assay: biochemical; assay type: binding; conditions: high-confidence ErbB interactions
T1 construct: thioredoxin; made in house; host or cells: E. coli BL21(DE3)pLysS

SHC1-PTB domain = biological target: T2, SHC1-PTB domain (Homo sapiens, UniProt P29353); assay: FP saturation binding assay
T2 sequence (P29353 156-339 limits assumed): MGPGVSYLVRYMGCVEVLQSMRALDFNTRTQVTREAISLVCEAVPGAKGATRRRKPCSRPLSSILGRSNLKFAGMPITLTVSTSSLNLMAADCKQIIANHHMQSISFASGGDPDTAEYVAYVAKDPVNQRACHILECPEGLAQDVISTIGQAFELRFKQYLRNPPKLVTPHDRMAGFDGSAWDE

SH2 and PTB domains [1] = biological target: T3, SH2 and PTB domains (Homo sapiens, UniProt P29353); assay: In-house protein microarrays (with or without 5 mM DTT), protein named per line; assay type: binding; conditions: protein SHC1, array fabrication # 39329
T3 construct: thioredoxin; made in house; host or cells: BL21(DE3)pLysS E. coli
T3 sequence (P29353 1-583): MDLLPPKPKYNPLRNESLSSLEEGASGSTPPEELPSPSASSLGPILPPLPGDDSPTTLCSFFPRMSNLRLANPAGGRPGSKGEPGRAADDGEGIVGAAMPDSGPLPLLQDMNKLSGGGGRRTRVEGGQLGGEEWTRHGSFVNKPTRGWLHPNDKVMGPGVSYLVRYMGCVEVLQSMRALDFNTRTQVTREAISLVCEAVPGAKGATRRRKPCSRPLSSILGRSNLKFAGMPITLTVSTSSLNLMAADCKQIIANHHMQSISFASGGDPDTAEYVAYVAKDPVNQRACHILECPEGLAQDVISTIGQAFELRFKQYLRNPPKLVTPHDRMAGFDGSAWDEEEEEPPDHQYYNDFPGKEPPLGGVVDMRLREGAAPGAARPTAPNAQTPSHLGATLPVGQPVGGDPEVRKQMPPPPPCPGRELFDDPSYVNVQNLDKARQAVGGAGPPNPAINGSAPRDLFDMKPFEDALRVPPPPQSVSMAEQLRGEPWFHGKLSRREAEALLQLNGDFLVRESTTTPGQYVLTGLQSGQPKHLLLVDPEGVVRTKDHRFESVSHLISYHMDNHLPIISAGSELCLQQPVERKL
Procedure, shortened: (§1)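 KD values come from rhodamine fluorescence of duplicate spots after subtraction of a thioredoxin control. Domains were printed at ~40 µM on aldehyde slides, blocked 1 h at room temperature in pH 7.8 HEPES/KCl buffer with 5 mM DTT and 1% BSA, then peptide-probed.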

SH2 and PTB domains [2] = biological target: T4, SH2 and PTB domains (Homo sapiens, UniProt P08631); assay: as above; assay type: binding; conditions: protein HCK
T4 construct: thioredoxin; made in house; host or cells: BL21(DE3)pLysS E. coli
Procedure, shortened: as §1

SH2 and PTB domains [3] = biological target: T5, SH2 and PTB domains (Homo sapiens, UniProt P20936); assay: as above; assay type: binding
T5 construct: thioredoxin; made in house; host or cells: BL21(DE3)pLysS E. coli
T5 sequence (P20936 1-1047): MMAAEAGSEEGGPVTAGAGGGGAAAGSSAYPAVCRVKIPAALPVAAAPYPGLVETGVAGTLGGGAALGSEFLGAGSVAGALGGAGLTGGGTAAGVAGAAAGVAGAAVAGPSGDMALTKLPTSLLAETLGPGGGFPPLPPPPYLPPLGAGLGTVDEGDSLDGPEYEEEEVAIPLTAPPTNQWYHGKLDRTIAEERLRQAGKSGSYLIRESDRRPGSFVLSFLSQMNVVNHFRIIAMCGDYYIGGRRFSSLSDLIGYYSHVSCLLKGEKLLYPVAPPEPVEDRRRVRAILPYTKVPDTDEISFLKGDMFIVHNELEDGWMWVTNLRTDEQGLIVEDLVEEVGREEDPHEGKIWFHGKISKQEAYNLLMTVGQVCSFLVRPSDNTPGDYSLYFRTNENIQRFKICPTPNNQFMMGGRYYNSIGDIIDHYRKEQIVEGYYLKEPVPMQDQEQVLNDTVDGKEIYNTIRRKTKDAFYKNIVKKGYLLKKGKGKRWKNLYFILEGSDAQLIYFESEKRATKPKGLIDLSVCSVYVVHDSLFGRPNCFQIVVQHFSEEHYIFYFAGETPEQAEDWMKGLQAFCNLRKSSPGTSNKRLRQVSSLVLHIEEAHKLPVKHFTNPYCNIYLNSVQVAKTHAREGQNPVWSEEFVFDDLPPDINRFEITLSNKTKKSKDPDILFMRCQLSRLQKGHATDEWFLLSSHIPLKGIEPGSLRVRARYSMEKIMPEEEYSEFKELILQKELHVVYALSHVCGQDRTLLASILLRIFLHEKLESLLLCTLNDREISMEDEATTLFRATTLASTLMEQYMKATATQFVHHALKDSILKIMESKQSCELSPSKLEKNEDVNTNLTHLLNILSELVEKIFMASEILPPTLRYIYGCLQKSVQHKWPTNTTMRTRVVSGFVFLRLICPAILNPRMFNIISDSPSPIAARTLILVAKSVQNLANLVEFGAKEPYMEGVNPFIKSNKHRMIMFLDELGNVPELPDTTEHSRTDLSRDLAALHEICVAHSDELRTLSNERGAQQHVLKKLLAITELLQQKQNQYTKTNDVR
Procedure, shortened: as §1

[4] = protein RASA1-NC, PM assay replicate # 39337, array fabrication # 39329

T4 sequence (P08631 whole entry, the tested form may be a part): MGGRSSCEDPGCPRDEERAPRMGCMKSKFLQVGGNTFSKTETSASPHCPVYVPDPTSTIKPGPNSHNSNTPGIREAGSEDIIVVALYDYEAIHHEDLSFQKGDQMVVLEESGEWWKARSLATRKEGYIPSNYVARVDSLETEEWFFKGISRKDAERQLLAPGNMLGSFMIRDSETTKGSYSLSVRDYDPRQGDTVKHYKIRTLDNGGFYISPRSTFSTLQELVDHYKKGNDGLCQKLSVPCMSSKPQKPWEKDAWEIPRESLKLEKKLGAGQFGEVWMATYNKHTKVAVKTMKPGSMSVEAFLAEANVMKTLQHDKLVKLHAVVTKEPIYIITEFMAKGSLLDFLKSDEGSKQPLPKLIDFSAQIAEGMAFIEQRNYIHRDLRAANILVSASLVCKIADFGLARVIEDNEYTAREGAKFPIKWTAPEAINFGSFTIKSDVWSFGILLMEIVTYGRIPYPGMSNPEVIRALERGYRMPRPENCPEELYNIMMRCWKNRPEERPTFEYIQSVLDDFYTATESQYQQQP

In the case of `CC(C)C[C@H](NC(=O)[C@H](Cc1ccc(OP(=O)(O)O)cc1)NC(=O)[C@H](CCC(=O)O)NC(=O)[C@H](CCC(=O)O)NC(=O)[C@H](C)NC(=O)[C@@H](N)CC(=O)O)C(=O)N[C@H](C(=O)N1CCC[C@H]1C(=O)N[C@@H](CCC(N)=O)C(=O)N[C@@H](CCC(N)=O)C(=O)NCC(=O)N[C@@H](Cc1ccccc1)C(=O)N[C@@H](CC(=O)O)C(=O)O)C(C)C` [ErbB2 1023 13-mer] (HELM PEPTIDE1{D.A.E.E.[O=C([C@H](Cc1ccc(OP(=O)(O)O)cc1)N[*:1])[*:2]].L.V.P.Q.Q.G.F.D}$$$$V2.0), the Kd (PIK3R3-C SH2 domain; Protein PIK3R3-C, FP saturation binding, mean over replicate hits) is reported as 5800 nM.

Work on `CC(C)C[C@H](NC(=O)[C@H](CC(N)=O)NC(=O)[C@@H](N)CC(=O)O)C(=O)N[C@@H](Cc1ccc(O)cc1)C(=O)N[C@@H](Cc1ccc(OP(=O)(O)O)cc1)C(=O)N[C@@H](Cc1c[nH]c2ccccc12)C(=O)N[C@@H](CC(=O)O)C(=O)N[C@@H](CCC(N)=O)C(=O)N[C@@H](CC(=O)O)C(=O)N1CCC[C@H]1C(=O)N1CCC[C@H]1C(=O)N[C@@H](CCC(=O)O)C(=O)N[C@@H](CC(=O)O)C(=O)O` [ErbB2 1222 13-mer] (HELM PEPTIDE1{D.N.L.Y.[O=C([C@H](Cc1ccc(OP(=O)(O)O)cc1)N[*:1])[*:2]].W.D.Q.D.P.P.E.D}$$$$V2.0) yielded a Kd (SHC1-PTB domain) of 2960 nM.

In the case of `CC(C)C[C@H](NC(=O)[C@@H]1CCCN1)C(=O)N[C@@H](CCC(N)=O)C(=O)N[C@@H](CCCNC(=N)N)C(=O)N[C@@H](Cc1ccc(OP(=O)(O)O)cc1)C(=O)N[C@@H](CO)C(=O)N[C@@H](CCC(=O)O)C(=O)N[C@@H](CC(=O)O)C(=O)N1CCC[C@H]1C(=O)N[C@H](C(=O)N[C@H](C(=O)N1CCC[C@H]1C(=O)N[C@@H](CC(=O)O)C(=O)O)C(C)C)[C@@H](C)O` [ErbB2 pY1112] (HELM PEPTIDE1{P.L.Q.R.[O=C([C@H](Cc1ccc(OP(=O)(O)O)cc1)N[*:1])[*:2]].S.E.D.P.T.V.P.D}$$$$V2.0), the “Kd” value (SH2 and PTB domains [1]; PM assay replicate # 39331) is reported as 1260 nM and the “Kd” value (SH2 and PTB domains [1]; PM assay replicate # 39336) is reported as 3060 nM.

For `CC(C)C[C@H](NC(=O)[C@@H]1CCCN1C(=O)[C@H](C)NC(=O)[C@@H](NC(=O)[C@H](Cc1ccc(OP(=O)(O)O)cc1)NC(=O)CNC(=O)[C@H](CC(=O)O)NC(=O)[C@@H](NC(=O)[C@@H](N)CCC(=O)O)[C@@H](C)O)C(C)C)C(=O)N[C@H](C(=O)N[C@@H](CS)C(=O)N[C@@H](CO)C(=O)N[C@@H](CC(=O)O)C(=O)O)[C@@H](C)O` [ErbB2 pY1127], the “Kd” value (SH2 and PTB domains [2]; PM assay replicate # 39336, array fabrication # 39329) was 4360 nM, the “Kd” value (SH2 and PTB domains [2]; PM assay replicate # 39337, array fabrication # 39329) was 250 nM and the “Kd” value (SH2 and PTB domains [3]; protein RASA1-C, PM assay replicate # 39337, array fabrication # 39329) was 1210 nM. The “Kd” value (SH2 and PTB domains [3]; protein RASA1-N, PM assay replicate # 39336, array fabrication # 39329) was 590 nM, the “Kd” value (SH2 and PTB domains [3]; protein RASA1-N, PM assay replicate # 39337, array fabrication # 39329) was 110 nM and the “Kd” value (SH2 and PTB domains [3]; protein RASA1-NC, PM assay replicate # 39336, array fabrication # 39329) was 120 nM. The “Kd” value (SH2 and PTB domains [3]; [4]) was 30 nM, the “Kd” value (SH2 and PTB domains [3]; protein RASA1-NC, PM assay replicate # 39603, array fabrication # 39392) was 60 nM and the “Kd” value (SH2 and PTB domains [1]; PM assay replicate # 39336) was 980 nM. For the same compound, the “Kd” value (SH2 and PTB domains [1]; PM assay replicate # 39337) was 820 nM.

With `CSCC[C@H](NC(=O)[C@H](Cc1ccc(OP(=O)(O)O)cc1)NC(=O)[C@H](CCC(=O)O)NC(=O)[C@H](Cc1ccc(O)cc1)NC(=O)CNC(=O)[C@@H](N)CC(C)C)C(=O)N[C@@H](CC(=O)O)C(=O)N[C@H](C(=O)NCC(=O)N[C@@H](CO)C(=O)N[C@@H](CC(=O)O)C(=O)N[C@@H](CC(C)C)C(=O)N[C@@H](CC(=O)O)C(=O)O)C(C)C` [ErbB3 1224 13-mer] (HELM PEPTIDE1{L.G.Y.E.[O=C([C@H](Cc1ccc(OP(=O)(O)O)cc1)N[*:1])[*:2]].M.D.V.G.S.D.L.D}$$$$V2.0) the Kd (PIK3R3-C SH2 domain; protein PIK3R3-C, FP, mean of replicate hits) was 6110 nM and the Kd (SHC1-PTB domain) was 5270 nM.

For `CCN(CC)c1ccc2c(-c3ccc(C(=O)N[C@@H](CC(N)=O)C(=O)NCC(=O)N4CCC[C@H]4C(=O)N4CCC[C@H]4C(=O)N[C@@H](CCCCN)C(=O)N[C@@H](C)C(=O)N[C@@H](CCC(=O)O)C(=O)N[C@@H](CC(=O)O)C(=O)N[C@@H](CCC(=O)O)C(=O)N[C@@H](Cc4ccc(OP(=O)(O)O)cc4)C(=O)N[C@H](C(=O)N[C@@H](CC(N)=O)C(=O)N[C@@H](CCC(=O)O)C(=O)N4CCC[C@H]4C(=O)N[C@@H](CC(C)C)C(=O)N[C@@H](Cc4ccc(O)cc4)C(=O)N[C@@H](CC(C)C)C(=O)N[C@@H](CC(=O)O)C(=O)O)C(C)C)cc3C(=O)[O-])c3ccc(=[N+](CC)CC)cc-3oc2c1` [ErbB4 1202 (18-mer)] (HELM PEPTIDE1{[CCN(CC)c1ccc2c(-c3ccc(C(=O)[*:2])cc3C(=O)[O-])c3ccc(=[N+](CC)CC)cc-3oc2c1].N.G.P.P.K.A.E.D.E.[O=C([C@H](Cc1ccc(OP(=O)(O)O)cc1)N[*:1])[*:2]].V.N.E.P.L.Y.L.D}$$$$V2.0), the “Kd” value (SH2 and PTB domains [3]; protein RASA1-N, PM assay replicate # 39307, array fabrication # 39286) was 660 nM and the “Kd” value (SH2 and PTB domains [3]; [4]) was 8560 nM.

With `CC[C@H](C)[C@H](NC(=O)[C@H](CC(N)=O)NC(=O)[C@H](CC(N)=O)NC(=O)[C@H](CCCCN)NC(=O)[C@H](CC(C)C)NC(=O)[C@H](Cc1ccc(OP(=O)(O)O)cc1)NC(=O)[C@H](CCC(=O)O)NC(=O)[C@H](C)NC(=O)[C@H](CCCCN)NC(=O)CNC(=O)[C@H](CC(C)C)NC(=O)[C@@H](NC(=O)[C@H](CC(N)=O)NC(=O)[C@H](C)NC(=O)[C@@H](N)Cc1ccccc1)[C@@H](C)O)C(=O)N[C@@H](CC(C)C)C(=O)N[C@@H](CO)C(=O)N[C@@H](CC(=O)O)C(=O)O` [ErbB4 pY1221 (18-mer)] (HELM PEPTIDE1{F.A.N.T.L.G.K.A.E.[O=C([C@H](Cc1ccc(OP(=O)(O)O)cc1)N[*:1])[*:2]].L.K.N.N.I.L.S.D}$$$$V2.0) the “Kd” value (SH2 and PTB domains [2]; PM assay replicate # 39307, array fabrication # 39286) was 70 nM.
